The pEC50 is the EC50 on a negative log10 scale, so that one unit is a factor of ten. Higher therefore signals a small EC50.

The results in this text go back to patent US11591341B2 (ALIGOS THERAPEUTICS, INC., priority 2019, dated 2023).

The structures appear in SMILES notation. pEC50: −log10 of the molar value.

This assay relates to HBV. Kind of assay: HBV-DNA Antiviral Assay Using HepG2.117 Cells (intracellular HBV DNA by qPCR). The format is cell-based, hepatitis B virus (genotype D). Particulars: Hepatitis B virus, HepG2.117. Summed up:
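HepG2.117 cells (genotype D HBV, Tet-off) were induced by doxycycline withdrawal and treated for 3 days with 9 concentrations in 4-fold dilution, 2% DMSO final. Intracellular HBV DNA was measured by qPCR against a standard curve, with ATPlite viability read in parallel. EC50, EC90 and CC50 came from fits against the DMSO control.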
On the technique in general: In qPCR the cycle at which signal appears reflects the starting amount.
`CC(C)(Oc1ccc(CNC(=O)c2c3n(c(=O)n2-c2ccc(OCC(F)(F)F)cc2)CCN(C(=O)c2ccc(Br)c(Cl)c2)C3)c(F)c1)C(N)=O` [Example 428, N-[[4-(2-amino-1,1-dimethyl-2-oxo-ethoxy)-2-fluoro-phenyl]methyl]-7-(4-bromo-3-chloro-benzoyl)-3-oxo-2-[4-(2,2,2-trifluoroethoxy)phenyl]-6,8-dihydro-5H-imidazo[1,5-a]pyrazine-1-carboxamide]: the pEC50 is 6.30 to 7.00.
As for `O=C(NCc1ccccc1-c1ncccn1)c1c2n(c(=O)n1-c1ccc(-n3cccn3)cc1)CCN(C(=O)c1ccc(Br)c(Cl)c1)C2` [Example 429, 7-(4-bromo-3-chloro-benzoyl)-3-oxo-2-(4-pyrazol-1-ylphenyl)-N-[(2-pyrimidin-2-ylphenyl)methyl]-6,8-dihydro-5H-imidazo[1,5-a]pyrazine-1-carboxamide], the figure is above 7.00.
The figure for `O=C(NCc1ccccc1)c1c2n(c(=O)n1-c1ccc(-c3ncc[nH]3)cc1)CCN(C(=O)c1ccc(Br)c(Cl)c1)C2` [Example 430, N-benzyl-7-(4-bromo-3-chloro-benozyl)-2-[4-(1H-imidazol-2-yl)phenyl]-3-oxo-6,8-dihydro-5H-imidazo[1,5-a]pyrazine-1-carboxamide] is 5.30 to 6.30.
`O=C1COc2ccc(CNC(=O)c3c4n(c(=O)n3-c3ccc(OC5CC5)cc3)CCN(C(=O)c3ccc(Br)c(Cl)c3)C4)cc2N1` [Example 431, 7-(4-bromo-3-chloro-benzoyl)-2-[4-(cyclopropoxy)phenyl]-3-oxo-N-[(3-oxo-4H-1,4-benzoxazin-6-yl)methyl]-6,8-dihydro-5H-imidazo[1,5-a]pyrazine-1-carboxamide] had a pEC50 of 5.30 to 6.30.
As for `N#Cc1cc(C(=O)N2CCn3c(c(C(=O)NCc4ccccc4-c4ncccn4)n(-c4ccc(OC5CC5)cc4)c3=O)C2)ccc1Br` [Example 432, 7-(4-bromo-3-cyano-benzoyl)-2-[4-(cyclopropoxy)phenyl]-3-oxo-N-[(2-pyrimidin-2-ylphenyl)methyl]-6,8-dihydro-5H-imidazo[1,5-a]pyrazine-1-carboxamide], the figure is 6.30 to 7.00; as for `N#Cc1cc(C(=O)N2CCn3c(c(C(=O)NCc4ccccc4-c4ncco4)n(-c4ccc(OC5CC5)cc4)c3=O)C2)ccc1Br` [Example 433, 7-(4-bromo-3-cyano-benzoyl)-2-[4-(cyclopropxy)phenyl]-N-[(2-oxazol-2-ylphenyl)methyl]-3-oxo-6,8-dihydro-5H-imidazo[1,5-a]pyrazine-1-carboxamide], 6.30 to 7.00; as for `O=C(NCc1ccccc1-c1nnco1)c1c2n(c(=O)n1-c1ccc(OC3CC3)cc1)CCN(C(=O)c1ccc(Br)c(Cl)c1)C2` [Example 434, 7-(4-bromo-3-chloro-benzoyl)-2-[4-(cyclopropoxy)phenyl]-N-[[2-(1,3,4-oxadiazol-2-yl)phenyl]methyl]-3-oxo-6,8-dihydro-5H-imidazo[1,5-a]pyrazine-1-carboxamide], above 7.00.
As for `O=C(NCc1c(F)cccc1-n1cccn1)c1c2n(c(=O)n1-c1ccc(OC3CC3)cc1)CCN(C(=O)c1ccc(Br)c(Cl)c1)C2` [Example 435, 7-(4-bromo-3-chloro-benzoyl)-2-[4-(cyclopropoxy)phenyl]-N-[(2-fluoro-6-pyrazol-1-yl-phenyl)methyl]-3-oxo-6,8-dihydro-5H-imidazo[1,5-a]pyrazine-1-carboxamide], the figure is above 7.00; as for `COc1ccc([C@H](C)NC(=O)c2c3n(c(=O)n2-c2ccc(-n4cccn4)cc2)CCN(C(=O)c2ccc(Br)c(Cl)c2)C3)cc1` [Example 442, 7-(4-bromo-3-chloro-benzoyl)-N-[(1S)-1-(4-methoxyphenyl)ethyl]-3-oxo-2-(4-pyrazol-1-ylphenyl)-6,8-dihydro-5H-imidazo[1,5-a]pyrazine-1-carboxamide], 6.30 to 7.00; as for `COc1ccc([C@H](C)NC(=O)c2c3n(c(=O)n2-c2ccc(OC4CC4)cc2)CCN(C(=O)c2ccc(Br)c(Cl)c2)C3)cc1` [Example 443, 7-(4-bromo-3-chloro-benozyl)-2-[4-(cyclopropoxy)phenyl]-N-[(1S)-1-(4-methoxyphenyl)ethyl]-3-oxo-6,8-dihydro-5H-imidazo[1,5-a]pyrazine-1-carboxamide], 6.30 to 7.00.
As for `N#Cc1cc(C(=O)N2CCn3c(c(C(=O)NCc4ccccc4-c4cccnn4)n(-c4ccc(OC5CC5)cc4)c3=O)C2)ccc1Br` [Example 445, 7-(4-bromo-3-cyano-benzoyl)-2-[4-(cyclopropoxy)phenyl]-3-oxo-N-[(2-pyridazin-3-ylphenyl)methyl]-6,8-dihydro-5H-imidazo[1,5-a]yprazine-1-carboxamide], the figure is 6.30 to 7.00; as for `O=C(NCc1ccccc1)c1c2n(c(=O)n1-c1ccc(OC3CC3)cc1)CCN(C(=O)c1cc(Cl)c(Br)cc1F)C2` [Example 446, N-benzyl-7-(4-bromo-5-chloro-2-fluoro-benzoyl)-2-[4-(cyclopropoxy)phenyl]-3-oxo-6,8-dihydro-5H-imidazo[1,5-a]pyrazine-1-carboxamide], below 5.30.
As to `COc1ccc([C@@H](C)NC(=O)c2c3n(c(=O)n2-c2ccc(OC4CC4)cc2)CCN(C(=O)c2ccc(Br)c(Cl)c2)C3)cc1` [Example 453, 7-(4-bromo-3-chloro-benzoyl)-2-[4-(cyclopropoxy)phenyl]-N-[(1R)-1-(4-methoxyphenyl)ethyl]-3-oxo-6,8-dihydro-5H-imidazo[1,5-a]pyrazine-1-carboxamide], the pEC50 is 6.30 to 7.00.
The figure for `COc1ccc([C@@H](C)NC(=O)c2c3n(c(=O)n2-c2ccc(-n4cccn4)cc2)CCN(C(=O)c2ccc(Br)c(Cl)c2)C3)cc1` [Example 454, 7-(4-bromo-3-chloro-benzoyl)-N-[(1R)-1-(4-methoxyphenyl)ethyl]-3-oxo-2-(4-pyrazol-1-ylphenyl)-6,8-dihydro-5H-imidazo[1,5-a]pyrazine-1-carboxamide] is 6.30 to 7.00; for `Cc1ccn(-c2ccc(-n3c(C(=O)NCc4ccccc4)c4n(c3=O)CCN(C(=O)c3ccc(Br)c(Cl)c3)C4)cc2)n1` [Example 455, N-benzyl-7-(4-bromo-3-chloro-benzoyl)-2-[4-(3-methylpyrazol-1-yl)phenyl]-3-oxo-6,8-dihydro-5H-imidazo[1,5-a]pyrazine-1-carboxamide] it is 6.30 to 7.00.
As for `Cc1ccnn1-c1ccc(-n2c(C(=O)NCc3ccccc3)c3n(c2=O)CCN(C(=O)c2ccc(Br)c(Cl)c2)C3)cc1` [Example 456, N-benzyl-7-(4-bromo-3-chloro-benzoyl)-2-[4-(5-methylpyrazol-1-yl)phenyl]-3-oxo-6,8-dihydro-5H-imidazo[1,5-a]pyrazine-1-carboxamide], the figure is 5.30 to 6.30; as for `O=C(NCc1ccccc1-n1cccn1)c1c2n(c(=O)n1-c1ccc(OC3CC3)cc1)CCN(C(=O)c1ccc(Br)c(Cl)c1)C2` [Example 457, 7-(4-bromo-3-chloro-benzoyl)-2-[4-(cyclopropoxy)phenyl]-3-oxo-N-[(2-pyrazol-1-ylphenyl)methyl]-6,8-dihydro-5H-imidazo[1,5-a]pyrazine-1-carboxamide], above 7.00; as for `O=C(NCc1c(F)ccc2nccnc12)c1c2n(c(=O)n1-c1ccc(-n3cccn3)cc1)CCN(C(=O)c1ccc(Br)c(Cl)c1)C2` [Example 458, 7-(4-bromo-3-chloro-benzoyl)-N-[(6-fluoroquinoxalin-5-yl)methyl]-3-oxo-2-(4-pyrazol-1-ylphenyl)-6,8-dihydro-5H-imidazo[1,5-a]pyrazine-1-carboxamide], 6.30 to 7.00.
As for `COc1ccc(CNC(=O)c2c3n(c(=O)n2-c2ccc(-n4cccn4)cc2)CCN(C(=O)c2ccc(Br)c(Cl)c2)C3)c(F)c1` [Example 459, 7-(4-bromo-3-chloro-benzoyl)-N-[(2-fluoro-4-methoxy-phenyl)methyl]-3-oxo-2-(4-pyrazol-1-ylphenyl)-6,8-dihydro-5H-imidazo[1,5-a]pyrazine-1-carboxamide], the figure is 6.30 to 7.00; as for `COc1ccc(CNC(=O)c2c3n(c(=O)n2-c2ccc(OC4CC4)cc2)CCN(C(=O)c2ccc(Br)c(Cl)c2)C3)c(F)c1` [Example 460, 7-(4-bromo-3-chloro-benzoyl)-2-[4-(cyclopropoxy)phenyl]-N-[(2-fluoro-4-methoxy-phenyl)methyl]-3-oxo-6,8-dihydro-5H-imidazo[1,5-a]pyrazine-1-carboxamide], 6.30 to 7.00; as for `O=C(NCc1c(F)ccc2nccnc12)c1c2n(c(=O)n1-c1ccc(OC3CC3)cc1)CCN(C(=O)c1ccc(Br)c(Cl)c1)C2` [Example 461, 7-(4-bromo-3-chloro-benozyl)-2-[4-(cyclopropoxy)phenyl]-N-[(6-fluoroquinoxalin-5-yl)methyl]-3-oxo-6,8-dihydro-5H-imidazo[1,5-a]pyrazine-1-carboxamide], above 7.00.
In the case of `Cc1c(C(=O)N2CCn3c(c(C(=O)NCc4ccccc4)n(-c4ccc(OC5CC5)cc4)c3=O)C2)ccc(Br)c1Cl` [Example 462, N-benzyl-7-(4-bromo-3-chloro-2-methyl-benzoyl)-2-[4-(cyclopropoxy)phenyl]-3-oxo-6,8-dihydro-5H-imidazo[1,5-a]pyrazine-1-carboxamide], the pEC50 was 5.30 to 6.30.
